Measured values: patent US20240327364A1, “THERAPEUTIC TARGETING OF GPR68 TO INDUCE FERROPTOSIS” (University Of Maryland, Baltimore, priority 2023, published 2024)

Key:
MYO3A = target: T1, MYO3A (Homo sapiens, UniProt Q8NEV4); test: KinomeScan; format: binding; conditions: read-out: % Control
T1 construct: purchased DiscoveRx

MELK = target: T2, MELK (Homo sapiens, UniProt Q14680); test: KinomeScan; format: binding; conditions: read-out: % Control
T2 construct: purchased DiscoveRx (Fremont, CA)

CRF2 = target: T3, CRF2 (Homo sapiens, UniProt Q13324); test: GPCR Profiler; format: cell-based
T3 construct: host or cells: Chem-1 cells with Gα15

YES = target: T4, YES (Homo sapiens, UniProt P07947); test: KinomeScan; format: binding; conditions: read-out: % Control
T4 construct: purchased DiscoveRx

TRPM6 = target: T5, TRPM6 (Homo sapiens, UniProt Q9BX84); test: KinomeScan; format: binding; conditions: read-out: % Control
T5 construct: purchased DiscoveRx (Fremont, CA)

PK1 = target: T6, PK1 (Homo sapiens, UniProt Q8TCW9); test: GPCR Profiler; format: cell-based
T6 construct: host or cells: Chem-1 cells with Gα15

WEE1 = target: T7, WEE1 (Homo sapiens, UniProt P30291); test: KinomeScan; format: binding; conditions: read-out: % Control
T7 construct: purchased DiscoveRx

CCR1 = target: T8, CCR1 (Homo sapiens, UniProt P32246); test: GPCR Profiler; format: cell-based
T8 construct: host or cells: Chem-1 cells with Gα15

mGlu2 = target: T9, mGlu2 (Homo sapiens, UniProt Q14416); test: GPCR Profiler; format: cell-based
T9 construct: host or cells: Chem-1 cells expressing Gα15

HIPK4 = target: T10, HIPK4 (Homo sapiens, UniProt Q8NE63); test: KinomeScan; format: binding; conditions: read-out: % Control
T10 construct: purchased DiscoveRx (Fremont, CA)

DP = target: T11, DP (Homo sapiens, UniProt Q13258); test: GPCR Profiler; format: cell-based
T11 construct: host or cells: Chem-1 cells expressing Gα15

DAPK2 = target: T12, DAPK2 (Homo sapiens, UniProt Q9UIK4); test: KinomeScan; format: binding; conditions: read-out: % Control
T12 construct: purchased DiscoveRx (Fremont, CA), KinomeScan service

PAK7 = target: T13, PAK7 (Homo sapiens, UniProt Q9P286); test: KinomeScan; format: binding; conditions: read-out: % Control
T13 construct: purchased DiscoveRx

DYRK2 = target: T14, DYRK2 (Homo sapiens, UniProt Q92630); test: KinomeScan; format: binding; conditions: read-out: % Control
T14 construct: purchased DiscoveRx (Fremont, CA), KinomeScan service

BMPR2 = target: T15, BMPR2 (Homo sapiens, UniProt Q13873); test: KinomeScan; format: binding; conditions: read-out: % Control
T15 construct: purchased DiscoveRx (Fremont, CA)

M3 = target: T16, M3 (Homo sapiens, UniProt P20309); test: GPCR Profiler; format: cell-based
T16 construct: host or cells: Chem-1 cells with promiscuous Gα15

ERK5 = target: T17, ERK5 (Homo sapiens, UniProt Q13164); test: KinomeScan; format: binding; conditions: read-out: % Control
T17 construct: purchased DiscoveRx (Fremont, CA)

WM115 = test: Scratch assay; format: cell-based, human; conditions: 20 hours, OGM2 5 uM
Protocol: (§1) Since there are numerous parallels are found between neural crest cells and cancer during migration, we examined whether OGM could inhibit the migration of cells in human melanoma cell lines (Oppitz et al., 2007; Schriek et al., 2005, Sinnberg et al., 2018). […] A2058. MeWo and WM115 cells were grown to confluence and a stripe of cells were denuded with a p200 pipette tip “scratch” and rinsed with PBS. Cells were treated with OGM or DMSO and incubated in low serum media. Imaging was done at 30 minutes after “scratch” and then 20 hours afterwards. Areas were then measured and normalized to the initial area.

MeWo = test: Scratch assay; format: cell-based, human; conditions: 20 hours, OGM2 5 uM
Protocol: as §1

HT-29 = test: Cell Titer-Glo viability, Colorectal adenocarcinoma; format: cell-based; design: key to Class: Very Sensitive (LC50<2 μM); Sensitive (LC50=2 to 10 μM); Mildly Sensitive (LC50>10 μM); Refractory (no killing at 10 μM)
Protocol: OGM2 kills wide variety of cancer cell types. Cell sensitivity can be classified in to Very Sensitive (LC50<2 μM), Sensitive (LC50=2 to 10 μM), Mildly Sensitive (LC50>10 μM), and Refractory (no killing at 10 μM). The listed established cell were incubated with OGM2 at 2 μM or 10 μM for 72 hours under standard cell culture conditions, and relative cell number was assessed using Cell Titer-Glo Luminescent Cell Viability Assay (Promega™) following the manufacturer's instructions. Luminescence was determined using a Cytation 5 reader and Gen5 software package (BioTek™).
Cancer cells, which are very sensitive to killing by OGM2 (LCs <2 μM), with reported mRNA expression of GPR68 and the related proton sensing receptor GPR4. LC50's (concentrations causing 50% lethality) were determined using CellTiter-Glo (Promega™, G7570). Cells were plated in 12-well plates (CELLTREAT Scientific Products, 229112) in 1 ml of DMEM with high glucose, GlutaMAX, HEPES, or RPMI 1640 with Penicillin-Streptomycin (ThermoFisher™, 10564029, 11875119 and 15140122) and 10% FBS. Cells were incubated overnight at 37° C. in 5% CO2. Then 1 mL of fresh media was added with DMSO, OGM, or positive control (Erastin; APExBIO Technology, LLC, B1524) and cells incubated for 3 days. On the third day, all media was removed, cells were rinsed with 1×PBS, PBS was removed, and 200 μL of 1× Passive Lysis Buffer (Promega™, E1941) was added to each well. […]. Subsequently, 20 μL of lysate was added to 100 μL CellTiter-Glo™ reagent on a LUMITRAC 200 plate (Greiner™ bio-one, 82050-726). Plates were briefly spun down and read on a GloMax-Multi Detection System (Promega™).
The cells listed in the tables above were incubated with OGM2 at 2 μM or 10 μM for 72 hours under standard cell culture conditions, and relative cell number was assessed using Cell Titer-Glo Luminescent Cell Viability Assay (Promega™) following the manufacturer's instructions. Luminescence was determined using a Cytation 5 reader and Gen5 software package (BioTek™). RNA expression of GPR68 and GPR4 in the corresponding cancer cell lines are listed, according to the publicly available The Human Protein Atlas version 22.0 and Ensembl version 103.38 (see proteinatlas.org). The consensus normalized expression value (“nTPM”=normalize transcript per million) was calculated as the maximum nTPM value for each gene in the two data sources.

T16 sequence (P20309 whole entry): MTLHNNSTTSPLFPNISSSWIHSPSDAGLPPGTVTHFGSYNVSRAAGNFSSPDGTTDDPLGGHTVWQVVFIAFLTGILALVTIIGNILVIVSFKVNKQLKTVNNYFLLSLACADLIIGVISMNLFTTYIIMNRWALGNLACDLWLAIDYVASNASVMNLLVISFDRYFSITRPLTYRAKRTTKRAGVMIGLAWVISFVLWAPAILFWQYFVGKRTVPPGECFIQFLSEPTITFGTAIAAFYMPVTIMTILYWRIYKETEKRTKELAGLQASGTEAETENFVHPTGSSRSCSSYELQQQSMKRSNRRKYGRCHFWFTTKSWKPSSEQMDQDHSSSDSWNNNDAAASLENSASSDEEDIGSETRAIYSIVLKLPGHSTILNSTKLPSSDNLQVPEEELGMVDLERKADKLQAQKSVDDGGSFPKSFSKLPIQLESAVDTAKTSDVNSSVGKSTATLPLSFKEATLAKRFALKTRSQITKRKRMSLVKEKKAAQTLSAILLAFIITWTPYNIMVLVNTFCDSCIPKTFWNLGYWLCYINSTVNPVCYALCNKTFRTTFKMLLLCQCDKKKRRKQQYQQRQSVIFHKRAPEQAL
T9 sequence (Q14416 19-872): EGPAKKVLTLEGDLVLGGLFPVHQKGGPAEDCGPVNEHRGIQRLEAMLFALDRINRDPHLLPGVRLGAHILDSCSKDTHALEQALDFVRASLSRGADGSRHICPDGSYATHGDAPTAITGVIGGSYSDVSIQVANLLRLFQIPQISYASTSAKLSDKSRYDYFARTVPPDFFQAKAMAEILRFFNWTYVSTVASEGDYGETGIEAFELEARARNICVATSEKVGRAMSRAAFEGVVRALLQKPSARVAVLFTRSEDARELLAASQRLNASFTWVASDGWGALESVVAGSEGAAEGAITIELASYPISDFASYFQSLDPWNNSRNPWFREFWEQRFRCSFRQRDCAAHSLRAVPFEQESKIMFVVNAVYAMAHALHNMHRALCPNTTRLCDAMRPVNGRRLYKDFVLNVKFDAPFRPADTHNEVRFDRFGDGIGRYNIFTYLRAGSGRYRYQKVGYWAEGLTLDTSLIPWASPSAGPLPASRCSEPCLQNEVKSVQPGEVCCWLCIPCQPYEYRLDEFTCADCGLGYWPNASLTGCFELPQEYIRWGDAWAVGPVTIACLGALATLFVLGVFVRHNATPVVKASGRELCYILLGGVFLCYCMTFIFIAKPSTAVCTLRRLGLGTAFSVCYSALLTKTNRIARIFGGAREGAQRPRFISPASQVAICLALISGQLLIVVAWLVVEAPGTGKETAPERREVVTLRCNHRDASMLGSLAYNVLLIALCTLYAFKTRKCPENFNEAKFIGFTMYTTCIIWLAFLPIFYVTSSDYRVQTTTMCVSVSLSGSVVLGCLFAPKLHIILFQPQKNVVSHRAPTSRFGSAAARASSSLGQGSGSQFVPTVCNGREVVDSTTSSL
T3 sequence (Q13324 whole entry): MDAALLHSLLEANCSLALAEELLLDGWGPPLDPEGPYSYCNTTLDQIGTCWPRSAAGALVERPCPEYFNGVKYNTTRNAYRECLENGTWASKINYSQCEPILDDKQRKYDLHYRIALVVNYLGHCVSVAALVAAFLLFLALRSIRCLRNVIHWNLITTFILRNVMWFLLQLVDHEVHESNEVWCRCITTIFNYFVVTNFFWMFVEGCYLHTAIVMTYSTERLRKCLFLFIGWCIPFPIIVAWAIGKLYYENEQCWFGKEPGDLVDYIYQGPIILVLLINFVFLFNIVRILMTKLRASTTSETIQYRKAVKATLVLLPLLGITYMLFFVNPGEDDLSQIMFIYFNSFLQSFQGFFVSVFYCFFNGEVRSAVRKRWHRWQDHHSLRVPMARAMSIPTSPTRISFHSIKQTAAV
T8 sequence (P32246 whole entry, species assumed): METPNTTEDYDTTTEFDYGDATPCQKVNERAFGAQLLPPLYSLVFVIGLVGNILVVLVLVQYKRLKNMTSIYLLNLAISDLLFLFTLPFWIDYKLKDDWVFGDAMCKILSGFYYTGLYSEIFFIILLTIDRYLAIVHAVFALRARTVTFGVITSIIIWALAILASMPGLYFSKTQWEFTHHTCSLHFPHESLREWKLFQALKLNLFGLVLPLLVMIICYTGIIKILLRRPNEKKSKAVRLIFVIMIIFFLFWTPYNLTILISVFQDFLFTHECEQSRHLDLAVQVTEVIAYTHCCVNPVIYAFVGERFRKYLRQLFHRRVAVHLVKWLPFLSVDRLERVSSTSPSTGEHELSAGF
T6 sequence (Q8TCW9 whole entry): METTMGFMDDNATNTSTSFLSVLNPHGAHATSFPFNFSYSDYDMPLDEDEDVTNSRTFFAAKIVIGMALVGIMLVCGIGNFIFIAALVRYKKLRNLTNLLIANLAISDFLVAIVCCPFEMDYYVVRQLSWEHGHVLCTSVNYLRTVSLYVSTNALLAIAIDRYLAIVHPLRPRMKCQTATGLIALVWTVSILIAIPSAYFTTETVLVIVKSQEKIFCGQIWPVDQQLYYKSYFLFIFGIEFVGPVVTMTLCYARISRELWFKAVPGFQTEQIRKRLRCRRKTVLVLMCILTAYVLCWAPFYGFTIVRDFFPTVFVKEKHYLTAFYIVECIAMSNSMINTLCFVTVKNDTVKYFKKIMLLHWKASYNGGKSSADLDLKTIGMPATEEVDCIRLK
T11 sequence (Q13258 whole entry): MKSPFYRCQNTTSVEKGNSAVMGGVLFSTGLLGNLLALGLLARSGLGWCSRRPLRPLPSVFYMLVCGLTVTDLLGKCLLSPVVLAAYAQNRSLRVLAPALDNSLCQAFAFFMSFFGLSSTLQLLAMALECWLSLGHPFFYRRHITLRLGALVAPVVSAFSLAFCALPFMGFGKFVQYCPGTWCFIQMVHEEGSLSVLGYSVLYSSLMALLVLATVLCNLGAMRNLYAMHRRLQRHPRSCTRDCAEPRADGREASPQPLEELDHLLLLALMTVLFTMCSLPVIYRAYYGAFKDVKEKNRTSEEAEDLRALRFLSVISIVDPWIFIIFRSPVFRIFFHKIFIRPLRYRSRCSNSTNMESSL
T12 sequence (Q9UIK4 whole entry): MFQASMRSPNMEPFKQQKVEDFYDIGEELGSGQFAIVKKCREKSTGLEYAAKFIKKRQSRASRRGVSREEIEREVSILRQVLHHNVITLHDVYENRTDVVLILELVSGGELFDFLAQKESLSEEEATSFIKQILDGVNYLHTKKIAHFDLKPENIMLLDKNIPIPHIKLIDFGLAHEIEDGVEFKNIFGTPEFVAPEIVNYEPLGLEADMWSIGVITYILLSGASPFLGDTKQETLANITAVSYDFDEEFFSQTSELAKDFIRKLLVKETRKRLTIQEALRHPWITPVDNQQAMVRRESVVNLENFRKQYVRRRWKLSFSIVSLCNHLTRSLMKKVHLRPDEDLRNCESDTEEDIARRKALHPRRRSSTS
T7 sequence (P30291 whole entry): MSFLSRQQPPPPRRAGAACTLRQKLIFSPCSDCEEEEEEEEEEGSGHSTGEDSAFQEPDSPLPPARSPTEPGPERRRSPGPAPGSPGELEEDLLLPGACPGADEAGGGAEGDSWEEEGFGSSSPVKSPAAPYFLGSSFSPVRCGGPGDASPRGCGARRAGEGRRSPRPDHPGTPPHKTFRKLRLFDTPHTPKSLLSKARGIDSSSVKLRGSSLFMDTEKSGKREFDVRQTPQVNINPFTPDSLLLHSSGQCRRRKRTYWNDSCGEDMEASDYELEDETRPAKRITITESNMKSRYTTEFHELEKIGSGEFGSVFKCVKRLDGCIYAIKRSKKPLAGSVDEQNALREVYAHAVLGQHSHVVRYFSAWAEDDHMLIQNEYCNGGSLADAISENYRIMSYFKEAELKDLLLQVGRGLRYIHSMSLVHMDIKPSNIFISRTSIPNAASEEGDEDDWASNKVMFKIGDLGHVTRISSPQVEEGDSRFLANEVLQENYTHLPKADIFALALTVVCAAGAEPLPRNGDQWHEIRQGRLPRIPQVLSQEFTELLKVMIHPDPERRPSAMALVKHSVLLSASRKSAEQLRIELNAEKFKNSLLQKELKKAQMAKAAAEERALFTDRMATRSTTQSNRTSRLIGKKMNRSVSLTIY
T2 sequence (Q14680 whole entry): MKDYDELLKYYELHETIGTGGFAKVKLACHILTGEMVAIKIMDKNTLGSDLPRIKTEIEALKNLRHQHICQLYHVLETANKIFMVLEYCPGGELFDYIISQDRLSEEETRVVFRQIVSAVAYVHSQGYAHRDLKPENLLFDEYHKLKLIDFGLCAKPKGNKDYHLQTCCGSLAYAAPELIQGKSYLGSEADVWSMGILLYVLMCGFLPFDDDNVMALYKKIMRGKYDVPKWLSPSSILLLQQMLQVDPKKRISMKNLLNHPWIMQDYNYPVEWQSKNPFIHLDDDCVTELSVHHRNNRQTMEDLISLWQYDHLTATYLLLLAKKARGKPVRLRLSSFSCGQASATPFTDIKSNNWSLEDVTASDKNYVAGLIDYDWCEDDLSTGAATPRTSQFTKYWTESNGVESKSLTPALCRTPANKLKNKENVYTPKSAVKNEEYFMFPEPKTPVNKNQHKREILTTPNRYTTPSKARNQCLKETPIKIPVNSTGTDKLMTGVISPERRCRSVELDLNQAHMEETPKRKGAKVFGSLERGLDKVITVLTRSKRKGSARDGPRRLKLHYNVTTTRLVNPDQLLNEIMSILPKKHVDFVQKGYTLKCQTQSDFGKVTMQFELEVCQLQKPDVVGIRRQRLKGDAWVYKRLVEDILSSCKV

Question: Which results are given for `CCc1ccc2c(c1)C1(NN=C(c3cccc4ccccc34)S1)C(=O)N2` (centres unmarked) [OGM1, 5-ethyl-5′-naphthalen-1-ylspiro[1H-indole-3,2′-3H-1,3,4-thiadiazole]-2-one]?
Answer: remaining binding at 10 µM (MYO3A): 95%; remaining binding at 10 µM (MELK): 100%; Antagonism (CRF2; 10 uM): −13.7; Agonism (CRF2; 12.5 uM): 0.6; remaining binding at 10 µM (YES): 100%; remaining binding at 10 µM (TRPM6): 80%; Antagonism (PK1; 10 uM): −8; Agonism (PK1; 12.5 uM): 0.2; remaining binding at 10 µM (WEE1): 100%; Antagonism (CCR1; 10 uM): −0.6; Agonism (CCR1; 12.5 uM): −0.3; Antagonism (mGlu2; 10 uM): −1.2; Agonism (mGlu2; 12.5 uM): −0.4; remaining binding at 10 µM (HIPK4): 100%; Antagonism (DP; 10 uM): −11.7; Agonism (DP; 12.5 uM): 0.8; remaining binding at 10 µM (DAPK2): 89%; remaining binding at 10 µM (PAK7): 62%; remaining binding at 10 µM (DYRK2): 91%; remaining binding at 10 µM (BMPR2): 92%; Antagonism (M3; 10 uM): −1.9; Agonism (M3; 12.5 uM): 0.7; remaining binding at 10 µM (ERK5): 89%

Question: Which results are given for `CCc1ccc2c(c1)C1(NN=C(c3ccccc3)S1)C(=O)N2` (centres unmarked) [OGM2]?
Answer: migration (WM115): inhibited migration; migration (MeWo): inhibited migration; Class (HT-29): Refractory; % Survival 2 μM OGM (HT-29; 72 hours): 102.8%; % Survival 10 μM OGM (HT-29; 72 hours): 103.9%; LC50 (μM) (HT-29; 72 hours): No
